US20210361680A1, “INOSITOL-BASED IMMUNOTHERAPIES” (NormOxys, Inc., priority 2018, published 2021)
“Also recorded” adds a separate entry of the source.

Assays:
NK cells [1] = assay: Flow cytometry of NK cells in B16F10Luc tumors, C57BL6 mice; format: in vivo, mouse
Experimental: (§1) Murine B16F10 cells were implanted in C57BL6 or on Rj:NMRI-nu nude mice leg subcutaneously as we described previously by injecting a spheroid plug of 10^5 cells in 100 μl Matrigel (BD Biosciences).
(§2) ITPP was injected intraperitoneally (1.5 g/kg: in saline) twice a week over 3 weeks. It was started on day7 and repeated on day 8 post tumor inoculation (day 0). The following serial treatments were applied on days 15 and 16, 21 and 22. Tumors were extracted and weighted at the indicated times.
(§3) Tumor samples were immediately transferred in to PBS on ice. Biopsies were cut into small pieces and filtered through cell strainer after being dissociated by collagenase/dispase (Gibco). The samples were depleted of erythrocytes by red blood lysis buffer (eBiosciences).
(§4) Single cell suspensions were stained with mAbs for 1 h at 4° C. Acquisition was performed by one to four color flow cytometry using FACS LSR (Becton Dickinson). Dead cells were excluded on scatter profile. Data were acquired using CellQuest software (Becton Dickinson) on at least 100,000 events. Data were expressed as dot plot or histogram when comparison of fluorescence intensity is needed.
(§5) The following directly conjugated rat anti-mouse mAbs were used for the FACS staining: CD45-PerCP, CD11b-APC, CCR4-PE, CCR5-PE, CCR7-PE, CCR1O-PE and CXCR4-PE were from BD Biosciences. CD49b-APC was from Biolegend. CD226-PE, CD4-FITC, CD25-APC, CD8a-FITC, PD-1-PE, CTLA-4-PE, PDL1-PE-Cy7, PDL2-FITC and CD47-APC were from eBiosciences. CD11c-FITC and GR1-FITC were from Milteny. CD206 was from Santa Cruz. We used anti-mouse Foxp3 staining set PE (eBioscience) for Foxp3 staining.

CX3CR1 = assay: Flow cytometry of CX3CR1 expression in the tumor site; format: in vivo, mouse; conditions: endothelial enriched cell population
Experimental: as §1, §2, §3
(§6) In specified experiments, tumors were depleted from CD45+ and/or CD31+ cells by magnetic separation (Easy Sep magnet, StemCell Technologies Inc).
as §4

activated NK cells = assay: Flow cytometry of activated NK cells in 4T1 mammary carcinoma; format: in vivo, mouse; conditions: 4T1 cells bearing mice
Experimental: (§7) 4T1murine mammary carcinoma (10^4 cells as spheroid plug in Matrigel) cells were injected in the mammary fat pad of BALBc/by mice.
as §2, §3, §4
(§8) The following directly conjugated rat anti-mouse mAbs were used for the FACS staining: CD45-PerCP, CD11b-APC, CCR4-PE, CCR5-PE, CCR7-PE, CCR1O-PE and CXCR4-PE were from BD Biosciences. CD49b-APC was from Biolegend. […]

CCR10 = assay: Flow cytometry of CCR10 expression in the tumor site; format: in vivo, mouse
Experimental: as §1, §2, §3, §6, §4, §5

CXCR4 = assay: Flow cytometry of CXCR4 expression in the tumor site; format: in vivo, mouse
Experimental: as §1, §2, §3, §6, §4, §5

cells = conditions: cited from earlier work
PD-1 [2] = assay: Flow cytometry of PD-1 expressing CD45+ cells in B16F10 melanoma; format: in vivo, mouse
Experimental: as §1, §2, §3, §4, §8

CD45+CD4+CCR4+ Th2 cells = assay: Flow cytometry of Th2 cells in B16F10 Luc melanoma; format: in vivo, mouse
Experimental: as §1, §2, §3, §4, §8

NK cells [3] = assay: Flow cytometry of NK cells in B16F10Luc tumors, NRj:NMRI nude mice; format: in vivo, mouse; conditions: B16F10-Luc tumors in nude mice
Experimental: as §1, §2, §3, §4, §8

CD45+CD11b+Gr1+ MDSCs = assay: Flow cytometry of MDSCs in B16F10 Luc melanoma; format: in vivo, mouse
Experimental: as §1, §2, §3, §4, §8

[4] = tested on: M2 (CD45+CD11c+CD206+) macrophages; assay: Flow cytometry of M2 macrophages in 4T1 mammary carcinoma; format: in vivo, mouse
Experimental: as §7, §2, §3, §4, §8

CCR7 = assay: Flow cytometry of CCR7 expression in the tumor site; format: in vivo, mouse; conditions: tumor cells
Experimental: as §1, §2, §3, §6
(§9) Single cell suspensions were stained with mAbs for 1 h at 4° C. Acquisition was performed by one to four color flow cytometry using FACS LSR (Becton Dickinson). Dead cells were excluded on scatter profile. Data were acquired using CellQuest software (Becton Dickinson) on at least 100,000 events. Data were expressed as dot plot or histogram when comparison of fluorescence intensity is needed. […]

PD-L1 = assay: Flow cytometry of PD-L1 expression in tumor cell populations; format: in vivo, mouse
Experimental: as §1, §2, §3, §6, §4, §5

CCR5 = assay: Flow cytometry of CCR5 expression in the tumor site; format: in vivo, mouse
Experimental: as §1, §2, §3, §6, §9

B16F10 melanoma cells [5] = assay: Tumor growth of B16F10 melanoma in C57BL6 mice under ITPP treatment; format: in vivo, mouse; conditions: day 23
Experimental: (§10) Murine B16F10 cells were implanted in C57BL6 or on Rj:NMRI-nu nude mice leg subcutaneously by injecting a plug of 10^5 cells in 100 μl Matrigel (BD Biosciences).
as §1, §2

immune cells (CD45+) = assay: Flow cytometry of CD45+ immune cells in B16F10Luc tumors; format: in vivo, mouse; conditions: ITPP-treated versus control mice
Experimental: as §1, §2, §3, §4, §8

B16F10 melanoma cells [6] = assay: Tumor growth of B16F10 melanoma in Rj:NMRI-nu nude mice under ITPP treatment; format: in vivo, mouse; conditions: ITPP 1.5 g/kg intraperitoneally, day 23, versus controls
Experimental: as §10, §1, §2

4T1 mammary carcinoma = assay: Tumor growth of 4T1 mammary carcinoma in BALB/c-by mice under ITPP treatment; format: in vivo, mouse
Experimental: as §7, §2

Treg cells = assay: Flow cytometry of Treg cells in 4T1 mammary carcinoma; format: in vivo, mouse; conditions: 4T1 mammary carcinoma bearing BalbC mice
Experimental: as §7, §2, §3, §4, §8

[7] = in vivo; cited from earlier work
NK cells [8] = assay: Immunocytochemical labelling of NK cell infiltrate in B16F10 Luc tumors; format: in vivo, mouse; conditions: B16F10 Luc tumors extracted on day 23; non-treated: NK cells stuck in the vessels
Experimental: as §1, §2
Tumor tissues were embedded in tissue freezing medium (Tissue-Tek; Sakura) and snap frozen in liquid nitrogen. Tumor cryosections were fixed and stained with mouse anti-CD31 (rat monoclonal IgG2a; eBiosciences), anti-CD49b (Rat IgM; BD Pharmingen) or anti-Firefly Luciferase (Rabbit IgG; Abcam) before tetramethyl rhodamine isothiocyanate or fluorescein isothiocyanate secondary antibodies were added. Nuclei were stained with bisbenzimide H 33258 (Sigma-Aldrich).

CD31+ endothelial cells = assay: Flow cytometry of CD31+ endothelial cells in B16F10Luc melanoma; format: in vivo, mouse; conditions: treated versus non-treated tumors
Experimental: as §1, §2, §3, §4, §8

[9] = tested on: CD45+CD4+CD25+FoxP3+ Treg cells; assay: Flow cytometry of Treg cells in B16F10Luc tumors; format: in vivo, mouse
Experimental: as §1, §2, §3, §4, §8

PD-1 [10] = assay: Flow cytometry of PD-1 expressing CD45+ cells in 4T1 mammary carcinoma; format: in vivo, mouse
Experimental: as §7, §2, §3, §4, §8

PD-L2 = assay: Flow cytometry of PD-L2 expression in tumor cell populations; format: in vivo, mouse; conditions: for reduction of the expression of PD-L2: compared with PD-L1
Experimental: as §1, §2, §3, §6, §4, §5

CD47 = assay: Flow cytometry of CD47 expression in B16F10 tumors; format: in vivo, mouse; conditions: tumor B16F10 melanoma cells
Experimental: as §1, §2, §3, §4, §8

[11] = tested on: M2 (CD45+CD11c+CD206+) macrophages; assay: Flow cytometry of M2 macrophages in B16F10Luc melanoma; format: in vivo, mouse; conditions: melanoma tumor site
Experimental: as §1, §2, §3, §4, §8

[12] = tested on: M1 (CD45+CD11c+CD206−) macrophages; assay: Flow cytometry of M1 macrophages in B16F10 Luc melanoma; format: in vivo, mouse
Experimental: as §1, §2, §3, §4, §8

CTLA-4 = assay: Flow cytometry of CTLA-4 expression among CD45+ cells; format: in vivo, mouse
Experimental: as §2, §3, §4
The following directly conjugated rat anti-mouse mAbs were used for the FACS staining: CD45-PerCP, CD11b-APC, CCR4-PE, CCR5-PE, CCR7-PE, CCR1O-PE and CXCR4-PE were from BD Biosciences. CD49b-APC was from Biolegend. CD226-PE, CD4-FITC, CD25-APC, CD8a-FITC, PD-1-PE, CTLA-4-PE, PDL1-PE-Cy7, PDL2-FITC and CD47-APC were from eBiosciences. CD11c-FITC and GR1-FITC were from Milteny. CD206 was from Santa Cruz. […]

[13] = CD31+ endothelial cells of the tumor

SMILES: O=P1(O)OC2C3OP(=O)(O)OP(=O)(O)OC3C3OP(=O)(O)OP(=O)(O)OC3C2OP(=O)(O)O1 (centres unmarked) [ITPP, myo-inositol tris pyrophosphate]
- proportions of NK cells found in the tumor before and after ITPP treatments (R) (NK cells [1]; B16F10-Luc tumors in normal C57Bl6 mice): 2.25
- number of NK cells in the tumor site (NK cells [1]; CD45+CD49+ NK cells, B16F10Luc tumors, C57BL6 mice): doubled
- numbers of activated (CD45+CD49b+CD226+) NK cells (NK cells [1]; melanoma bearing mice, after ITPP treatment): increase
- expression of the fractalkine receptor CX3CR1 (CX3CR1): induced expression
- recruitment of activated NK cells (activated NK cells): higher recruitment
- cells expressing CCR10 (CCR10; B16F10 cells): reduced
- increase of cells expressing CCR10 (R) (CCR10; endothelial cells enriched population): 2
- increase of cells expressing CCR10 (R) (CCR10; immune cells (CD45+)): 10
- CXCR4 expression (CXCR4; CD45+ cells): not affected
- CXCR4 expression (CXCR4; endothelial enriched cell population): not affected
- cells expressing CXCR4 (CXCR4; tumor cells): strongly reduced
- toxicity for cells treated separately (cells): not to be toxic
- CD45+PD-1+ cells among whole tumor populations (PD-1 [2]): increase; also recorded: enriched
- proportion of Th2 cells (CD45+CD4+CCR4+) in the tumor site (CD45+CD4+CCR4+ Th2 cells): decrease; also recorded: reduced
- proportions of NK cells found in the tumor before and after ITPP treatments (R) (NK cells [3]): 2.25
- MDSCs proportion in the tumor (CD45+CD11b+Gr1+ MDSCs): reduced
- proportion of M2 (CD45+CD11c+CD206+) macrophages [4]: reduced; also recorded: decreased
- CCR7 expression (CCR7): total reduction
- expression of PD-L1 (PD-L1; [13]): considerably reduced and less
- expression of PD-L1 (PD-L1; immune CD45+ cell population): strongly reduced
- expression of PD-L1 (PD-L1; separated CD45− cells): clear reduction
- expression of PD-L1 (PD-L1; whole tumor cell populations): clear reduction
- CCR5 expression (CCR5; CD45+ population): inverse effect
- CCR5 expression (CCR5; tumor cells): radical effect
- tumor size (B16F10 melanoma cells [5]; B16F10 melanoma in normal C57BL6 mice, ITPP 1.5 g/kg intraperitoneally, versus controls): reduction of the tumor size; also recorded: half size of the controls
- tumor growth (B16F10 melanoma cells [5]; melanoma cells, treatments stopped on day 21): 50%
- proportion of immune cells (CD45+) in the tumor (immune cells (CD45+)): higher
- tumor size (B16F10 melanoma cells [6]): reduction of the tumor size; also recorded: half size of the controls
- mammary carcinoma reduction (4T1 mammary carcinoma; 4T1, day 31, after arrest of treatment on day 21): up to 50%
- tumor size (4T1 mammary carcinoma; 4T1 mammary carcinoma in BALB/c-by mice, ITPP 1.5 g/kg intraperitoneally, day 31, versus controls): reduction of the tumor size; also recorded: half size of the controls
- Treg cell numbers (Treg cells): reducing effect; also recorded: reduced
- toxicity for the animals [7]: not to be toxic
- NK cell (CD49b+) infiltrate in the tumor (NK cells [8]): infiltrated the tumor mass
- proportion of CD31+ endothelial cells (CD31+ endothelial cells): higher; also recorded: increased
- proportions of CD45+CD4+CD25+FoxP3+ Treg cells [9]: very significantly decreased; also recorded: reduced
- CD45+PD-1+ cells among whole tumor populations (PD-1 [10]): increase; also recorded: enriched
- expression of PD-L2 (PD-L2; [13]): reduced and less
- expression of PD-L2 (PD-L2; immune CD45+ cell population): strongly reduced
- reduction of the expression of PD-L2 (PD-L2; separated CD45− cells): to a lesser extent
- reduction of the expression of PD-L2 (PD-L2; whole tumor cell populations): to a lesser extent
- intensity of CD47 expression (CD47): reduced
- proportion of M2 (CD45+CD11c+CD206+) macrophages [11]: reduced; also recorded: decreased
- numbers of macrophages expressing the M1 (CD45+CD11c+CD206−) phenotype [12]: tendency to increase; also recorded: tended to increase
- CTLA-4 expression (CTLA-4): No significant change
